Results on 14 compounds are retold here after US20230150974A1 (Foghorn Therapeutics Inc., priority 2020, published 2023).

Structures can show the parent of a compound that is named as a salt.

The target in one assay is T1, HiBit-BRG1 (Homo sapiens, UniProt P51532).
T1 construct: expressed in transfected cells
Briefly: HiBit-BRG1 cell-based degradation assay (Nano-Glo HiBiT Lytic Detection). The following applies: HeLa cells expressing HiBit-BRG1 and LgBit, 24 h; for DC50: read-out: BRG1 HiBit Degradation IC50; for Dmax: read-out: BRG1 HiBit Degradation Maximum (%). A digest of the protocol:
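Luminescence from reconstituted NanoBiT luciferase after lytic detection served as read-out of remaining HiBit-BRG1 in stable HeLa cells, which also express LgBit. Cells were seeded at 5000 per well and incubated with compound for 24 h. DMSO and a 2 μM known degrader defined the control range.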

In the next assay the target is T2, HiBiT-BRM (Homo sapiens, UniProt P51531).
T2 construct: expressed in transfected cells
Briefly: HiBiT-BRM cell-based degradation assay (Nano-Glo HiBiT Lytic Detection). The following applies: HeLa cells expressing HiBiT-BRM, 24 h; for DC50: read-out: BRM HiBit Degradation IC50. A digest of the protocol: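 HeLa cells stably expressing HiBiT-tagged BRM were treated for 24 h, then lysed with LgBiT-containing Nano-Glo reagent and luminescence read. % degradation scaled between DMSO (high control) and 2 μM reference BRM/BRG1 degrader (low control).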

T2 sequence (P51531 whole entry): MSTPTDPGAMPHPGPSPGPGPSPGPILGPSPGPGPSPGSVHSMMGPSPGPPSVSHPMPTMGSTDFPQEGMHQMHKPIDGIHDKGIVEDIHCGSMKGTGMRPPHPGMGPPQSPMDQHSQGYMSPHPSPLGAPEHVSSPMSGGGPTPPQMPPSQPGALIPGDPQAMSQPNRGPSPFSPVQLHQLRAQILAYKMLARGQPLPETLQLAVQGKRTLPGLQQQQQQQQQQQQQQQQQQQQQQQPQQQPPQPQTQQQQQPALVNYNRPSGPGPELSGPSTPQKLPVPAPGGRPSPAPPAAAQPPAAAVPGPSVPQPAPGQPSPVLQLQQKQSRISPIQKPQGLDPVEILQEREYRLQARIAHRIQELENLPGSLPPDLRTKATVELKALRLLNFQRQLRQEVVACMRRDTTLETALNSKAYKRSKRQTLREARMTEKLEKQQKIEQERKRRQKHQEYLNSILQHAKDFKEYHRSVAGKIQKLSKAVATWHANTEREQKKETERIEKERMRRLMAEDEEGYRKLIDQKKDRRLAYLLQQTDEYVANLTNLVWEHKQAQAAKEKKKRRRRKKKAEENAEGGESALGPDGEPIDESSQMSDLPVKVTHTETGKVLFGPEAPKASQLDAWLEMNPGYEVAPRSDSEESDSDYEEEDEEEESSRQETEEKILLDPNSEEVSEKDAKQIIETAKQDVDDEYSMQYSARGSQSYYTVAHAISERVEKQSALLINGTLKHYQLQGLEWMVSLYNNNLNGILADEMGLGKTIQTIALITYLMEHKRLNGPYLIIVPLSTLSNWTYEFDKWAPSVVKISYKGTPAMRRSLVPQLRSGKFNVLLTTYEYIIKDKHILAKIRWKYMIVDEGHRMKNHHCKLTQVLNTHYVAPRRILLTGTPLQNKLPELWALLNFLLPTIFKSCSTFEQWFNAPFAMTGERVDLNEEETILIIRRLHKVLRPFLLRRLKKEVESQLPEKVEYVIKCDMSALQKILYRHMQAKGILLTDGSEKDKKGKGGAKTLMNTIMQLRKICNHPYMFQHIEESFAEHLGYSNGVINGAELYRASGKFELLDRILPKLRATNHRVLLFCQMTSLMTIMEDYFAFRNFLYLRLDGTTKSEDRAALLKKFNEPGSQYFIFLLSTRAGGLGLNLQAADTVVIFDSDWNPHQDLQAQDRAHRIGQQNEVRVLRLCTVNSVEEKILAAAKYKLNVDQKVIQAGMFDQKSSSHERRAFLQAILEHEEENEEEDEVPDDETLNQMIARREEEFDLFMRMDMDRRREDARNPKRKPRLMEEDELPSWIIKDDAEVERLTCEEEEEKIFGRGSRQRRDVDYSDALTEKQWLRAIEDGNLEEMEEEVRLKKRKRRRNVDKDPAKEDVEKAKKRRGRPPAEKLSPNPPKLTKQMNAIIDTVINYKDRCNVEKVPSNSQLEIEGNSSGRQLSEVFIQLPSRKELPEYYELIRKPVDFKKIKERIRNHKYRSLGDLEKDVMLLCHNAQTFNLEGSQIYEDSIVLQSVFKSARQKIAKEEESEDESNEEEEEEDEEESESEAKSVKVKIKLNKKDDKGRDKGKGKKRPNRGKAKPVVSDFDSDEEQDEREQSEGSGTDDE
T1 sequence (P51532 whole entry): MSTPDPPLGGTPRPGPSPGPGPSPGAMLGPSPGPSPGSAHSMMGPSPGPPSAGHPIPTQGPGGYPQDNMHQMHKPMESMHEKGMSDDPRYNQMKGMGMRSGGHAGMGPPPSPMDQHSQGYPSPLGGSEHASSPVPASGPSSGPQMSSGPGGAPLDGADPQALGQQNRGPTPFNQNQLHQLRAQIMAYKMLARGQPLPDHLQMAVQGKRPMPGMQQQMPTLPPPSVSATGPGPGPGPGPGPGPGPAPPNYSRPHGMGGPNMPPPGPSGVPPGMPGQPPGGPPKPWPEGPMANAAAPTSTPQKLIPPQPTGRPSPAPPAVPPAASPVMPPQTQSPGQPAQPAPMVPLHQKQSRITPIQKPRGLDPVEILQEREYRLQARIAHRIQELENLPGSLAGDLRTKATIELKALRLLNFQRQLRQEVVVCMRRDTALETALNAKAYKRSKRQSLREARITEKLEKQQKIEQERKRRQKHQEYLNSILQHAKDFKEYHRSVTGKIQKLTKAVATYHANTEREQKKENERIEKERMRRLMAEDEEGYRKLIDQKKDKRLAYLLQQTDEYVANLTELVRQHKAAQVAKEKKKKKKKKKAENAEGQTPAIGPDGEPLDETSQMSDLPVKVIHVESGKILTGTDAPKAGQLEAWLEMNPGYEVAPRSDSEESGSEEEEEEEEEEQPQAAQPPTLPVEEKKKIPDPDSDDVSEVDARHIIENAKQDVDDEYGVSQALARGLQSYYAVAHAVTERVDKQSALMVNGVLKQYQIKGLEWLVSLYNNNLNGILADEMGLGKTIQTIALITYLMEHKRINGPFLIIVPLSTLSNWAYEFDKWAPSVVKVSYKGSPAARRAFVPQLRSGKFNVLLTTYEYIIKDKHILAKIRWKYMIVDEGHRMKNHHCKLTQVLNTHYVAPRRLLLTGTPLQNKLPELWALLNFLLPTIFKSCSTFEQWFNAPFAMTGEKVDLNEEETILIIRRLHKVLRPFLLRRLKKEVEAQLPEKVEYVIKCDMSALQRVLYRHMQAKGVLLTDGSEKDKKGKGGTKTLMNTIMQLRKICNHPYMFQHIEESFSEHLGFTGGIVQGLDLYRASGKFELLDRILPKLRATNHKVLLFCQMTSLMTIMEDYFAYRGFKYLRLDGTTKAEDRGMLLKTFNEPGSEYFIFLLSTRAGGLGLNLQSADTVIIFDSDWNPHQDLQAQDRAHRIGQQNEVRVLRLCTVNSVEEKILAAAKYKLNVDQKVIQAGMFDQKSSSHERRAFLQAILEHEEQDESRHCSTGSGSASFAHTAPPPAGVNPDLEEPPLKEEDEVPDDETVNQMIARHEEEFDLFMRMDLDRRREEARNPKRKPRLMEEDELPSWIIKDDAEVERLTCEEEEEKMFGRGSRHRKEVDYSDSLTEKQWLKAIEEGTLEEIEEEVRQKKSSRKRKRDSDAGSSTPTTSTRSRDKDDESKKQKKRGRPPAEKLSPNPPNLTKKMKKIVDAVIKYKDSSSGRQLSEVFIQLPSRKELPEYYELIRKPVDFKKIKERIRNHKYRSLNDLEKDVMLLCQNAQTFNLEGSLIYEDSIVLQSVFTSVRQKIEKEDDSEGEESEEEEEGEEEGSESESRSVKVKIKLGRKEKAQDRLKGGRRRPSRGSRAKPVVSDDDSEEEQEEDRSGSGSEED

Regarding `Nc1nnc(-c2ccccc2O)cc1OCCc1ccc(CNC(=O)CCCCNc2ccc3c(c2)CN(C2CCC(=O)NC2=O)C3=O)cc1` (centres unmarked) [Compound 137, N-(4-(2-((3-amino-6-(2-hydroxyphenyl)pyridazin-4-yl)oxy)ethyl)benzyl)-5-((2-(2,6-dioxopiperidin-3-yl)-1-oxoisoindolin-5-yl)amino)pentanamide], at HiBit-BRG1, the DC50 was more than 1 µM and the Dmax was less than 50%. In addition, on HiBiT-BRM, the “BRM HiBit Degradation Maximum (%)” value is recorded as “C (“C” indicates maximum degradation <50%)” and the DC50 is more than 1 µM.
In the case of `Nc1nnc(-c2ccccc2O)cc1N1CCN(CCNC(=O)CCCCCCCOc2cccc3c2C(=O)N(C2CCC(=O)NC2=O)C3=O)CC1` (centres unmarked) [Compound 90, N-(2-[4-[3-amino-6-(2-hydroxyphenyl)pyridazin-4-yl]piperazin-1-yl]ethyl)-8-[[2-(2,6-dioxopiperidin-3-yl)-1,3-dioxo-2,3-dihydro-1H-isoindol-4-yl]oxy]octanamide], at HiBit-BRG1, the DC50 was more than 1 µM and the Dmax was less than 50%. At HiBiT-BRM, the “BRM HiBit Degradation Maximum (%)” value is “C (“C” indicates maximum degradation <50%)” and the DC50 is more than 1 µM.
As for `Cc1ncsc1-c1ccc(CNC(=O)[C@@H]2C[C@@H](O)CN2C(=O)[C@@H](NC(=O)CCN2CCC3(CC2)CC(C(=O)NCc2ccc(CCOc4cc(-c5ccccc5O)nnc4N)cc2)C3)C(C)(C)C)cc1` [Compound 186, N-[[4-(2-[[3-amino-6-(2-hydroxyphenyl)pyridazin-4-yl]oxy]ethyl)phenyl]methyl]-7-(2-[[(2S)-1-[(2S,4R)-4-hydroxy-2-([[4-(4-methyl-1,3-thiazol-5-yl)phenyl]methyl]carbamoyl)pyrrolidin-1-yl]-3,3-dimethyl-1-oxobutan-2-yl]carbamoyl]ethyl)-7-azaspiro[3.5]nonane-2-carboxamide], on HiBit-BRG1, the DC50 was more than 1 µM and the Dmax is less than 50%. Moreover, on HiBiT-BRM, the “BRM HiBit Degradation Maximum (%)” value was “C (“C” indicates maximum degradation <50%)” and the DC50 is more than 1 µM.
For the compound `CN(CCCCCOc1cccc2c1C(=O)N(C1CCC(=O)NC1=O)C2=O)Cc1ccc(CCOc2cc(-c3ccccc3O)nnc2N)cc1` (centres unmarked) [Compound 113, 4-((5-((4-(2-((3-amino-6-(2-hydroxyphenyl)pyridazin-4-yl)oxy)ethyl)benzyl)(methyl)amino)pentyl)oxy)-2-(2,6-dioxopiperidin-3-yl)isoindoline-1,3-dione], at HiBit-BRG1, the DC50 is more than 1 µM and the Dmax is less than 50%. Further, on HiBiT-BRM, the “BRM HiBit Degradation Maximum (%)” value was “A (“A” indicates maximum degradation ≥75%)” and the DC50 was more than 0.01 µM.
Take `Cc1ncsc1-c1ccc([C@H](C)NC(=O)[C@@H]2C[C@@H](O)CN2C(=O)[C@@H](c2cc(OCCN3CCC4(CC3)CCN(C(=O)c3ccc(CCOc5cc(-c6ccccc6O)nnc5N)cc3)CC4)no2)C(C)C)cc1` [Compound 209, (2S,4R)-1-[(2R)-2-[3-(2-[9-[4-(2-[[3-amino-6-(2-hydroxyphenyl)pyridazin-4-yl]oxy]ethyl)benzoyl]-3,9-diazaspiro[5.5]undecan-3-yl]ethoxy)-1,2-oxazol-5-yl]-3-methylbutanoyl]-4-hydroxy-N-[(1S)-1-[4-(4-methyl-1,3-thiazol-5-yl)phenyl]ethyl]pyrrolidine-2-carboxamide]: on HiBit-BRG1, the DC50 is more than 0.1 µM and the Dmax is more than 75%. At HiBiT-BRM, the “BRM HiBit Degradation Maximum (%)” value is recorded as “A (“A” indicates maximum degradation ≥75%)” and the DC50 was more than 0.01 µM.
The matching figures for `CN(CCc1ccc(CNCCN2CCN(c3cccc4c3C(=O)N(C3CCC(=O)NC3=O)C4=O)CC2)cc1)c1cc(-c2ccccc2O)nnc1N` (centres unmarked) [Compound 160, 4-(4-(2-((4-(2-((3-amino-6-(2-hydroxyphenyl)pyridazin-4-yl)(methyl)amino)ethyl)benzyl)amino)ethyl)piperazin-1-yl)-2-(2,6-dioxopiperidin-3-yl)isoindoline-1,3-dione diformate]: more than 1 µM, more than 50%, “B (“B” indicates maximum degradation ≥50%)” and more than 1 µM.
Consider `Cc1ncsc1-c1ccc(CNC(=O)[C@@H]2C[C@@H](O)CN2C(=O)[C@@H](NC(=O)COCC(=O)NCc2ccc(CCOc3cc(-c4ccccc4O)nnc3N)cc2)C(C)(C)C)cc1` [Compound 165, (2S,4R)-1-((S)-2-(2-(2-((4-(2-((3-amino-6-(2-hydroxyphenyl)pyridazin-4-yl)oxy)ethyl)benzyl)amino)-2-oxoethoxy)acetamido)-3,3-dimethylbutanoyl)-4-hydroxy-N-(4-(4-methylthiazol-5-yl)benzyl)pyrrolidine-2-carboxamide], for which, on HiBit-BRG1, the DC50 was more than 1 µM and the Dmax was less than 50%. At HiBiT-BRM, the “BRM HiBit Degradation Maximum (%)” value is reported as “A (“A” indicates maximum degradation ≥75%)” and the DC50 was more than 1 µM.
For `Nc1nnc(-c2cc(F)cc(Cl)c2O)cc1OCCc1ccc(CNCCCCCOc2cccc3c2C(=O)N(C2CCC(=O)NC2=O)C3=O)cc1` (centres unmarked) [Compound 119, 4-((5-((4-(2-((3-amino-6-(3-chloro-5-fluoro-2-hydroxyphenyl)pyridazin-4-yl)oxy)ethyl)benzyl)amino)pentyl)oxy)-2-(2,6-dioxopiperidin-3-yl)isoindoline-1,3-dione; formic acid salt], at HiBit-BRG1, the DC50 was more than 1 µM and the Dmax is more than 50%. Moreover, at HiBiT-BRM, the “BRM HiBit Degradation Maximum (%)” value is reported as “C (“C” indicates maximum degradation <50%)” and the DC50 was more than 1 µM.
Turning to `Nc1nnc(-c2ccccc2O)cc1OCCc1ccc(CNCCCC2CN(c3ccc4c(c3)C(=O)N(C3CCC(=O)NC3=O)C4=O)C2)cc1` (centres unmarked) [Compound 123, 5-[3-[3-([[4-(2-[[3-amino-6-(2-hydroxyphenyl)pyridazin-4-yl]oxy]ethyl)phenyl]methyl]amino)propyl]azetidin-1-yl]-2-(2,6-dioxopiperidin-3-yl)isoindole-1,3-dione], at HiBit-BRG1, the DC50 was more than 1 µM and the Dmax was less than 50%. On HiBiT-BRM, the “BRM HiBit Degradation Maximum (%)” value is “B (“B” indicates maximum degradation ≥50%)” and the DC50 is more than 0.01 µM.
Take `Cc1ncsc1-c1ccc(CNC(=O)[C@@H]2C[C@@H](O)CN2C(=O)[C@@H](NC(=O)CCCCCCCCCCCCCC(=O)N(C)Cc2ccc(CCOc3cc(-c4ccccc4O)nnc3N)cc2)C(C)(C)C)cc1` [Compound 159, N1-(4-(2-((3-amino-6-(2-hydroxyphenyl)pyridazin-4-yl)oxy)ethyl)benzyl)-N15-((S)-1-((2S,4R)-4-hydroxy-2-((4-(4-methylthiazol-5-yl)benzyl)carbamoyl)pyrrolidin-1-yl)-3,3-dimethyl-1-oxobutan-2-yl)-N1-methylpentadecanediamide]: at HiBit-BRG1, the DC50 was more than 1 µM and the Dmax is less than 50%. Also, on HiBiT-BRM, the “BRM HiBit Degradation Maximum (%)” value is listed as “A (“A” indicates maximum degradation ≥75%)” and the DC50 is more than 0.01 µM.
With `Nc1nnc(-c2ccccc2O)cc1N1CCN(CC(=O)NCCCCNc2ccc3c(c2)C(=O)N(C2CCC(=O)NC2=O)C3=O)CC1` (centres unmarked) [Compound 103, 2-[4-[3-amino-6-(2-hydroxyphenyl)pyridazin-4-yl]piperazin-1-yl]-N-(4-[[2-(2,6-dioxopiperidin-3-yl)-1,3-dioxo-2,3-dihydro-1H-isoindol-5-yl]amino]butyl)acetamide], at HiBit-BRG1, the DC50 was more than 1 µM and the Dmax is less than 50%. Besides, at HiBiT-BRM, the “BRM HiBit Degradation Maximum (%)” value is on record as “C (“C” indicates maximum degradation <50%)” and the DC50 is more than 1 µM.
For `Cc1ncsc1-c1ccc(CNC(=O)[C@@H]2C[C@@H](O)CN2C(=O)[C@@H](NC(=O)CCCCCCCCCCCCC(=O)NCc2ccc(CCOc3cc(-c4ccccc4O)nnc3N)cc2)C(C)(C)C)cc1` [Compound 36], at HiBit-BRG1, the DC50 was more than 1 µM and the Dmax was less than 50%. In addition, on HiBiT-BRM, the “BRM HiBit Degradation Maximum (%)” value is “B (“B” indicates maximum degradation ≥50%)” and the DC50 was more than 0.01 µM.
For the compound `Cc1ncsc1-c1ccc(CNC(=O)[C@@H]2C[C@@H](O)CN2C(=O)[C@@H](NC(=O)CCCCCCCCCNC(=O)CN2CCN(c3cc(-c4ccccc4O)nnc3N)CC2)C(C)(C)C)cc1` [Compound 102, (2S,4R)-1-[(2S)-2-[10-(2-[4-[3-amino-6-(2-hydroxyphenyl)pyridazin-4-yl]piperazin-1-yl]acetamido)decanamido]-3,3-dimethylbutanoyl]-4-hydroxy-N-[[4-(4-methyl-1,3-thiazol-5-yl)phenyl]methyl]pyrrolidine-2-carboxamide], at HiBit-BRG1, the DC50 was more than 1 µM and the Dmax is less than 50%. Besides, on HiBiT-BRM, the “BRM HiBit Degradation Maximum (%)” value was “A (“A” indicates maximum degradation ≥75%)” and the DC50 was more than 0.1 µM.
The like results for `Cc1ncsc1-c1ccc(CNC(=O)[C@@H]2C[C@@H](O)CN2C(=O)[C@@H](NC(=O)CCCCCCCNC(=O)c2ccc(CCOc3cc(-c4ccccc4O)nnc3N)cc2)C(C)(C)C)cc1` [Compound 57, (2S,4R)-1-[(2S)-2-(8-[[4-(2-[[3-amino-6-(2-hydroxyphenyl)pyridazin-4-yl]oxy]ethyl)phenyl]formamido]octanamido)-3,3-dimethylbutanoyl]-4-hydroxy-N-[[4-(4-methyl-1,3-thiazol-5-yl)phenyl]methyl]pyrrolidine-2-carboxamide] were, in that order, more than 1 µM, less than 50%, “B (“B” indicates maximum degradation ≥50%)” and more than 0.1 µM.
